# Results as given in patent US11076595B2, “1-(n,n-disubstituted carbamoyl) 4-(substituted sulfonyl)triazolin-5-one derivative, 4-(n,n-disubstituted carbamoyl) 1-(substituted sulfonyl)triazolin-5-one derivative, and herbicide containing said derivative as active ingredient” (HOKKO CHEMICAL INDUSTRY CO., LTD., priority 2017, dated 2021).
# Experiments:
# Type in all cases: in vivo
# [1] = test system: Echinochloa crus-galli; assay: Test Example 12: herbicidal effect test by treatment during growing period in paddy field; settings: 120 g/10a; treatment seven days after sowing in flooded paddy pot; assessed 14 days after treatment
# Description: (§1) This test was performed with two replications per one formulation concentration plot, and 14 days after the formulation treatments, the weed suppression rate (%) was determined according to the following equation (Math. 2). Weed suppression rate (%)=(1−average dry weight (g) of plants in treated plots/average dry weight (g) of plants in untreated plots)×100 [Math. 2]
# (§2) A Wagner pot having an area of 1/10000 are was filled with paddy field soil and after adding water, a chemical fertilizer (N:P:K=17:17:17) was mixed, followed by puddling. Thereafter, 30 grains of each of Echinochloa crus-galli, broad-leaved weed (Lindernia pyxidaria, Monochoria vaginalis) and Scirpus juncoides seeds were sown to a depth of 0 to 1 cm. Immediately after the sowing, the pot was flooded, and the depth of water was kept at about 3 cm. The pot was subsequently managed in a glass greenhouse. Seven Days after sowing, an emulsifiable concentrate prepared according to Formulation Example 15 by using the compound shown in Table 10 below was diluted with water, and a predetermined amount of the water-diluted formulation was added dropwise. The application rate of the active ingredient, by conversion, corresponded to 120 g per 10 are. The test was performed with two replications per one formulation concentration plot, and 14 days after the formulation treatments, the weed suppression rate (%) was determined according to the equation (Math. 2).
# [2] = test system: Scirpus juncoides; assay: as above; settings: 120 g/10a; treatment seven days after sowing in flooded paddy pot; assessed 14 days after treatment
# Description: as §1, §2
# [3] = test system: Monochoria vaginalis; assay: as above; settings: 120 g/10a; treatment seven days after sowing in flooded paddy pot; assessed 14 days after treatment
# Description: as §1, §2
# [4] = test system: Lindernia pyxidaria; assay: as above; settings: 120 g/10a; treatment seven days after sowing in flooded paddy pot; assessed 14 days after treatment
# Description: as §1, §2
# [5] = test system: Echinochloa crus-galli; assay: Test Example 11: herbicidal effect test by soil treatment in paddy field; settings: 120 g/10a active ingredient, 14 days after treatment
# From the text: as §2, with “greenhouse. Just” for “greenhouse. Seven Days”, “after that,” for “after sowing,”, “Table 9” for “Table 10”, “are.” for “are. The test was performed with two replications per one formulation concentration plot, and 14 days after the formulation treatments, the weed suppression rate (%) was determined according to the equation (Math. 2).”
# as §1
# [6] = test system: Scirpus juncoides; assay: as above; settings: 120 g/10a active ingredient, 14 days after treatment
# From the text: as §2, with “greenhouse. Just” for “greenhouse. Seven Days”, “after that,” for “after sowing,”, “Table 9” for “Table 10”, “are.” for “are. The test was performed with two replications per one formulation concentration plot, and 14 days after the formulation treatments, the weed suppression rate (%) was determined according to the equation (Math. 2).”
# as §1
# [7] = test system: Monochoria vaginalis; assay: as above; settings: 120 g/10a active ingredient, 14 days after treatment
# From the text: as §2, with “greenhouse. Just” for “greenhouse. Seven Days”, “after that,” for “after sowing,”, “Table 9” for “Table 10”, “are.” for “are. The test was performed with two replications per one formulation concentration plot, and 14 days after the formulation treatments, the weed suppression rate (%) was determined according to the equation (Math. 2).”
# as §1
# [8] = test system: Lindernia pyxidaria; assay: as above; settings: 120 g/10a active ingredient, 14 days after treatment
# From the text: as §2, with “greenhouse. Just” for “greenhouse. Seven Days”, “after that,” for “after sowing,”, “Table 9” for “Table 10”, “are.” for “are. The test was performed with two replications per one formulation concentration plot, and 14 days after the formulation treatments, the weed suppression rate (%) was determined according to the equation (Math. 2).”
# as §1
SMILES,Weed suppression rate (%) Echinochloa crus-galli [1],Weed suppression rate (%) Scirpus juncoides [2],Weed suppression rate (%) Monochoria vaginalis [3],Weed suppression rate (%) Lindemia pyxidaria [4],Weed suppression rate (%) Echinochloa crus-galli [5],Weed suppression rate (%) Scirpus juncoides [6],Weed suppression rate (%) Monochoria vaginalis [7],Weed suppression rate (%) Lindemia pyxidaria [8]
CC(C)N(C(=O)n1cnn(S(=O)(=O)c2ccccc2Cl)c1=O)c1ccc(F)cc1Cl [Compound 11-519],80%,80%,70%,70%,100%,100%,70%,100%
Cc1cc(C)c(S(=O)(=O)n2ncn(C(=O)N(c3cccc(F)c3F)C(C)C)c2=O)c(C)c1 [Compound 11-862],100%,100%,100%,80%,100%,100%,100%,100%
CC(C)N(C(=O)n1cnn(S(=O)(=O)c2ccc(Cl)cc2)c1=O)c1ccc(Cl)cn1 [Compound 11-612],80%,90%,70%,90%,100%,70%,70%,100%
CC(C)N(C(=O)n1cnn(S(=O)(=O)c2cccc(F)c2)c1=O)c1c(F)c(F)cc(F)c1F [Compound 11-443],70%,100%,70%,70%,80%,100%,70%,70%
Cc1ccc(N(C(=O)n2cnn(S(=O)(=O)c3ccccc3Cl)c2=O)C(C)C)c(F)c1 [Compound 11-526],90%,90%,80%,80%,90%,90%,80%,80%
Cc1cc(C)c(S(=O)(=O)n2ncn(C(=O)N(c3c(F)cc(F)cc3F)C(C)C)c2=O)c(C)c1 [Compound 11-867],100%,80%,80%,70%,100%,80%,80%,100%
Cc1cc(Cl)ccc1N(C(=O)n1cnn(S(=O)(=O)N(C)C)c1=O)C(C)C [Compound 11-1079],90%,90%,80%,80%,90%,90%,80%,80%
CC(C)N(C(=O)n1cnn(S(=O)(=O)c2ccccc2Cl)c1=O)c1cccc(F)c1F [Compound 11-511],100%,100%,100%,80%,100%,100%,90%,100%
CC(C)N(C(=O)n1cnn(S(=O)(=O)c2cccc(F)c2)c1=O)c1ccccc1F [Compound 11-428],90%,90%,90%,90%,90%,90%,90%,90%
CC(C)N(C(=O)n1cnn(S(=O)(=O)c2ccc(C(C)(C)C)cc2)c1=O)c1cccc(F)c1F [Compound 11-681],100%,100%,100%,90%,100%,100%,80%,90%
Cc1cc(F)ccc1N(C(=O)n1cnn(S(=O)(=O)C2CCCCC2)c1=O)C(C)C [Compound 11-307],90%,60%,60%,70%,80%,80%,70%,70%
CC(C)N(C(=O)n1cnn(S(=O)(=O)c2ccc(Cl)cc2)c1=O)c1cccc(F)c1F [Compound 11-587],90%,90%,90%,80%,90%,60%,60%,80%
CC(C)N(C(=O)n1cnn(S(=O)(=O)c2ccc(F)cc2)c1=O)c1c(F)c(F)cc(F)c1F [Compound 11-480],100%,100%,70%,80%,100%,90%,80%,90%
Cc1nn(S(=O)(=O)C2CC2)c(=O)n1C(=O)N(c1ccc(F)cc1F)C(C)C [Compound 11-246],90%,90%,80%,80%,90%,90%,80%,80%
CC(C)N(C(=O)n1cnn(S(=O)(=O)c2ccccc2F)c1=O)c1ccc(C(F)(F)F)cc1F [Compound 11-419],90%,60%,80%,60%,100%,70%,60%,100%
CN(C(=O)n1cnn(S(=O)(=O)c2ccc(Cl)cc2)c1=O)c1ccc(F)cc1F [Compound 11-1134],80%,100%,70%,70%,,,,
CC(C)N(C(=O)n1cnn(S(=O)(=O)N(C)C)c1=O)c1c(F)c(F)cc(F)c1F [Compound 11-1069],90%,60%,70%,70%,,,,
CN(C(=O)n1cnn(S(=O)(=O)c2ccc(C(C)(C)C)cc2)c1=O)c1ccc(F)cc1F [Compound 11-1141],90%,60%,80%,70%,,,,
Cc1ccc(S(=O)(=O)n2ncn(C(=O)N(c3ccc(Br)cc3Cl)C(C)C)c2=O)cc1 [Compound 11-648],60%,90%,70%,60%,,,,
